According to patent US12162866B1, “Crystal form of pyrazolyl-amino-pyrimidinyl derivative, and preparation method therefor and use thereof” (LYNK PHARMACEUTICALS CO., LTD., priority 2023, dated 2024):
In brackets after ≈: the same amount, converted by molar mass. Values belong to the molecule of their own block, whether it stands above or below them.

Tests used:
[1] = dynamic solubility in simulated gastrointestinal fluid; format: physicochemical; conditions: for solubility at 1 h / solubility at 4 h / solubility at 24 h: 37° C.; for XRPD of remaining solid: after 24 h
Procedure: After 24 h, the pH of the suspension was determined. The remaining suspension was centrifuged, and the remaining solid was subjected to XRPD characterization.

simulated dry grinding = format: physicochemical; conditions: dry grinding for 3 min
JAK2 = JAK2 (Homo sapiens, UniProt O60674); test: migration detection kinase assay, JAK2
[2] = stability investigation (influencing factor, accelerated, intermediate, long term); format: physicochemical
[3] = press testing (crystal transformation under pressure); format: physicochemical; conditions: 10 Mpa, 5 min
simulated wet grinding = format: physicochemical; conditions: 3 min
[4] = water activity experiment at 25° C.; format: physicochemical; conditions: for XRPD result: 25° C.
Excerpt: The resulting solid was filtered and subjected to XRPD characterization.

JAK3 = target: T1, JAK3 (Homo sapiens, UniProt P52333); test: migration detection kinase assay, JAK3; format: biochemical; conditions: 1 mM ATP
T1 sequence (P52333 1-1124): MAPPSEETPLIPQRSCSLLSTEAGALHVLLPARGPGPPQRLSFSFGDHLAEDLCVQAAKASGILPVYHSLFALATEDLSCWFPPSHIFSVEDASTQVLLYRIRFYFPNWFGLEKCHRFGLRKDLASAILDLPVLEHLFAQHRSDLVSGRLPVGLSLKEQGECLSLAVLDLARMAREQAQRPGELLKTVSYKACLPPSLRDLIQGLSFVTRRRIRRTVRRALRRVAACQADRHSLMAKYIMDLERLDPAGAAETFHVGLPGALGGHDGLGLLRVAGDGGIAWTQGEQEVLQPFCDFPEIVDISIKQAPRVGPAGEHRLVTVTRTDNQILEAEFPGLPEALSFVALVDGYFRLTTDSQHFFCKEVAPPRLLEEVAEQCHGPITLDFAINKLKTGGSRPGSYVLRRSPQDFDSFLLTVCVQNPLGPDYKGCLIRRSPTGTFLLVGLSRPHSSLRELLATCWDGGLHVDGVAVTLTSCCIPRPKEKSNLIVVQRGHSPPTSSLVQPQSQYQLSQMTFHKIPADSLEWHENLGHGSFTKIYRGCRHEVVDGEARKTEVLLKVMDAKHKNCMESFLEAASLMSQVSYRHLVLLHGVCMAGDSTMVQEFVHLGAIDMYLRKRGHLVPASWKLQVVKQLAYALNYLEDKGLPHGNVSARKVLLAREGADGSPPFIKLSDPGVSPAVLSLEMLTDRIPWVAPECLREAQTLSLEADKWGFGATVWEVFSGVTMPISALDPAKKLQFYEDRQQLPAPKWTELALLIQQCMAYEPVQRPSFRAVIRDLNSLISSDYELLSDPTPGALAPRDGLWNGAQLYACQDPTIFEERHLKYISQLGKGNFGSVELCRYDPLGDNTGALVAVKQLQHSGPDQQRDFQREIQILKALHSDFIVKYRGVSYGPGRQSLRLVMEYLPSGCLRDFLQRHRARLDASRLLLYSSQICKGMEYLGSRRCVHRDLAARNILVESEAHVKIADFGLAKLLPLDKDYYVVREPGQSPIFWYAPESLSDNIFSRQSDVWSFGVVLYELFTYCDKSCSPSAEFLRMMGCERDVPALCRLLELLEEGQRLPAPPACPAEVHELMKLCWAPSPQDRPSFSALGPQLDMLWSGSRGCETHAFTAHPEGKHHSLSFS

hygroscopicity by DVS = format: physicochemical
TYK2 = TYK2 (Homo sapiens, UniProt P29597); test: migration detection kinase assay, TYK2; format: biochemical
JAK1 = JAK1 (Homo sapiens, UniProt P23458); test: migration detection kinase assay, JAK1; format: biochemical
[5] = phase II and phase III, treatment of AD; cited from earlier work
keratinocytes = test: proliferation of keratinocytes; format: cell-based; conditions: preclinical study
p-STAT signaling pathway = p-STAT signaling pathway induced by cytokines; conditions: in vivo and in vitro
[6] = fassif, thermodynamic from solid, simulated pre-meal intestinal fluid
[7] = fessif, thermodynamic from solid, simulated postprandial intestinal fluid
[8] = simulated gastric fluid, thermodynamic from solid, simulated gastric juice

Chain of JAK1 (P23458 whole entry): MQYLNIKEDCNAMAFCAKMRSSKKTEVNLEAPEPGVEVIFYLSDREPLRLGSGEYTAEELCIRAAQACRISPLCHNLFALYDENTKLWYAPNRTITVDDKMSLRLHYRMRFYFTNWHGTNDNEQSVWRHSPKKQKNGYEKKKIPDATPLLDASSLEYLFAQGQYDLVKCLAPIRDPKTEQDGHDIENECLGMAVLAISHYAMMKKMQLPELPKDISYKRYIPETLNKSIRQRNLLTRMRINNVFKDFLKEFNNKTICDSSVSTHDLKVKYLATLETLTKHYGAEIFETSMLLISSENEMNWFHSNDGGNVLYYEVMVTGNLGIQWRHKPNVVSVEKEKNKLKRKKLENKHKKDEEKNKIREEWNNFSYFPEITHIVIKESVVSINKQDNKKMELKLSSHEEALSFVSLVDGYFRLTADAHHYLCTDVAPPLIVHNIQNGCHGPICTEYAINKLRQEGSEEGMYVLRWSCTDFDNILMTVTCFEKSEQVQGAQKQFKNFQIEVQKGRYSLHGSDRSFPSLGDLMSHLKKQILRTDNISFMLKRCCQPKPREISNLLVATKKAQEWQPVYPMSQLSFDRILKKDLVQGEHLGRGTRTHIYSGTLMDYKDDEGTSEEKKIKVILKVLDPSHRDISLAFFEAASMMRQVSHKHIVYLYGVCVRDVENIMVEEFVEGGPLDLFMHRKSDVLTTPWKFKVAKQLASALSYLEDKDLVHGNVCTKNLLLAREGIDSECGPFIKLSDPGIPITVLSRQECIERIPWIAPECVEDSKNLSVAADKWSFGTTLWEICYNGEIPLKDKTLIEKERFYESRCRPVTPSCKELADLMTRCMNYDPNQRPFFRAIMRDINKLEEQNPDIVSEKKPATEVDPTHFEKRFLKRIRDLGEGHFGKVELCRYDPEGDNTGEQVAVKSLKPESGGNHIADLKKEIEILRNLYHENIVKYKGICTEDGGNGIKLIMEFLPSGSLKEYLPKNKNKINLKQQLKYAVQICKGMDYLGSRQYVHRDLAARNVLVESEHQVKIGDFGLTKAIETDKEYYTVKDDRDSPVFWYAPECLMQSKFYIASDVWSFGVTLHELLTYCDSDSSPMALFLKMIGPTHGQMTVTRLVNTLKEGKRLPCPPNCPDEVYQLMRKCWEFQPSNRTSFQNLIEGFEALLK
Chain of JAK2 (O60674 whole entry): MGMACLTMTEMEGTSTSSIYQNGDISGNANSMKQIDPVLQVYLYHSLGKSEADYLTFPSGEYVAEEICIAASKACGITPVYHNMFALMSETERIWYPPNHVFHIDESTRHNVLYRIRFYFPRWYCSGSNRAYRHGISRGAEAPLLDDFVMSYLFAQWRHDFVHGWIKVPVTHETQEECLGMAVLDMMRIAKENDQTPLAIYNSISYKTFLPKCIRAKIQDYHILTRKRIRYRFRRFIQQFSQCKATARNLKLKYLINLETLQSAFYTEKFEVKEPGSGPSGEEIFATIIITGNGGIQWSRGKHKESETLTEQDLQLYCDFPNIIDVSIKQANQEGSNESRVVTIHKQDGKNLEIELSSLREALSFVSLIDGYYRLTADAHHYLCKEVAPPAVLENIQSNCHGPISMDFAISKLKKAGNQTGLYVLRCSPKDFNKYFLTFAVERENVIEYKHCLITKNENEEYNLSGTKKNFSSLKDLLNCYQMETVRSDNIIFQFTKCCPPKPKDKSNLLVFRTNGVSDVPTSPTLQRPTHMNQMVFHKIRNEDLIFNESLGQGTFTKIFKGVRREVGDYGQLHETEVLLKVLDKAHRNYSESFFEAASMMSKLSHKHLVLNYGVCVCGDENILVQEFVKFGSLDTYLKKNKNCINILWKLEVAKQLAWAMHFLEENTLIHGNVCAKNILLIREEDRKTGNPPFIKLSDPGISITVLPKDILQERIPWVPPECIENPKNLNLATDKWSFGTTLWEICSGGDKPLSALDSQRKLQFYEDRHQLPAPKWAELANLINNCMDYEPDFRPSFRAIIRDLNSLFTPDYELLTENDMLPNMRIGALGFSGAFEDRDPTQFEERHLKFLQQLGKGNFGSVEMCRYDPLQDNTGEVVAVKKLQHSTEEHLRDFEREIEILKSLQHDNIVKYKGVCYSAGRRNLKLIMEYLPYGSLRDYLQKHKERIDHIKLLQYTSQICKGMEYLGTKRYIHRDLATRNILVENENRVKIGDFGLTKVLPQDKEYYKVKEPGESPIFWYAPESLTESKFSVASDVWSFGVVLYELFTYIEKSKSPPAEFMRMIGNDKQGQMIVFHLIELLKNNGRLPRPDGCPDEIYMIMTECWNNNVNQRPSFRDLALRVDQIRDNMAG
Chain of TYK2 (P29597 whole entry): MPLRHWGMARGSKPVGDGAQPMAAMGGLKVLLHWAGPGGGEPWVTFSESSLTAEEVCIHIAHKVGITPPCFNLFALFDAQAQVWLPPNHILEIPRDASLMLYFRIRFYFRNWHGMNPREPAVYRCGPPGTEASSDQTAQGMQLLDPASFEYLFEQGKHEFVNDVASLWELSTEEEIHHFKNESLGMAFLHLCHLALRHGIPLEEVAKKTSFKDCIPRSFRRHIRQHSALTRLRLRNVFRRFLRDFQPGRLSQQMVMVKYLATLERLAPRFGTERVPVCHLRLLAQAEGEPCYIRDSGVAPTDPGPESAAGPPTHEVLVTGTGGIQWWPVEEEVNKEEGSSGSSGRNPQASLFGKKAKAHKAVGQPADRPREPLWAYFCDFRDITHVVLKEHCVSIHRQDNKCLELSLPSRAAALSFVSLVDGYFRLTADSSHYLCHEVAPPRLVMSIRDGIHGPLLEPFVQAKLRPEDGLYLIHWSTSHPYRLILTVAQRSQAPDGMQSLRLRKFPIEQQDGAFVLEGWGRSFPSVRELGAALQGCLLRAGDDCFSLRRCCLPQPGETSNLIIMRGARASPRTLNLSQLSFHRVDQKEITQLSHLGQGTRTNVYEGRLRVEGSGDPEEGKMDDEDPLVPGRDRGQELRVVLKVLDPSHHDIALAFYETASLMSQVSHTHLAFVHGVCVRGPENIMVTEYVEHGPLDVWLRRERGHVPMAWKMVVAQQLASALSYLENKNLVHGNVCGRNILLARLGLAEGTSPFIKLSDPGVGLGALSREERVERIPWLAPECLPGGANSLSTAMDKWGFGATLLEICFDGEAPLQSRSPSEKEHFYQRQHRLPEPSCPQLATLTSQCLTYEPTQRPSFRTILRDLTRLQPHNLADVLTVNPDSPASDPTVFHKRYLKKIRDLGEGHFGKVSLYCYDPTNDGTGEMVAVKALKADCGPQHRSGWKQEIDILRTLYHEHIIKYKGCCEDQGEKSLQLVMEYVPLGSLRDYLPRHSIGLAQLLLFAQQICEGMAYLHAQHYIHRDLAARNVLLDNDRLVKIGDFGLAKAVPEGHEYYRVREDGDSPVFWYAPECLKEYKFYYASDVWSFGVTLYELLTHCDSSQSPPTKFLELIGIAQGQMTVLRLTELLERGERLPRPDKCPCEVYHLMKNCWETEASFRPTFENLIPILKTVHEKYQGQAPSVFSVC

- solubility at 1 h [1, 6]: 100 µg/mL (≈ 212 µM)
- solubility at 4 h [1, 6]: 111 µg/mL (≈ 234 µM)
- solubility at 24 h [1, 6]: 120 µg/mL (≈ 253 µM)
- solubility at 1 h [1, 7]: 389 µg/mL (≈ 822 µM)
- solubility at 4 h [1, 7]: 474 µg/mL (≈ 1000 µM)
- solubility at 24 h [1, 7]: 627 µg/mL (≈ 1320 µM)
- solubility at 1 h [1, 8]: 97.4 µg/mL (≈ 206 µM)
- solubility at 4 h [1, 8]: 92.3 µg/mL (≈ 195 µM)
- solubility at 24 h [1, 8]: 102 µg/mL (≈ 215 µM)
- XRPD of remaining solid ([1]; simulated gastric juice): Crystal form I
- solubility ([1]; simulated gastrointestinal fluid, 37 °C, fassgf or other biorelevant, thermodynamic from solid, summary statement): > 8 µg/mL
- XRPD of remaining solid ([1]; simulated postprandial intestinal fluid): Crystal form I
- XRPD of remaining solid ([1]; simulated pre-meal intestinal fluid): Crystal form I
- pH after 24 h ([1]; suspension in simulated gastric juice): 2.1 (simulated
- pH after 24 h ([1]; suspension in simulated postprandial intestinal fluid): 5.1 (simulated
- pH after 24 h ([1]; suspension in simulated pre-meal intestinal fluid): 6.6 (simulated
- change of crystal form after dry grinding (simulated dry grinding): The crystal form is not changed, and
- change of crystallinity after dry grinding (simulated dry grinding): the crystallinity is slightly reduced
- IC50 (JAK2): < 0.51 nM
- stability: appearance, related substances, assay, moisture, crystal form, content, microbial limit ([2]; accelerated condition 40° C.±2° C./75%±5% RH, 6 months): microbial limit were not changed
- Conclusion on crystal form ([2]; accelerated, intermediate condition and long term tests): keeps stable
- stability: appearance, related substances, assay, moisture, crystal form, content ([2]; high humidity of 92.5% RH, 30 days): not changed
- stability: appearance, related substances, assay, moisture, crystal form, content ([2]; high temperature of 60° C., 30 days): not changed
- stability: appearance, related substances, assay, moisture, crystal form, content ([2]; illumination of 1×ICH (1.2×10^6 Lux·hr, 200 w·hr/m^2)): not changed
- Conclusion on crystal form ([2]; influencing factor test: high temperature, high humidity, illumination): keeps stable
- stability: appearance, related substances, assay, moisture, crystal form, content, microbial limit ([2]; long-term condition 25° C.±2° C./60%±5% RH, 18 months): microbial limit were not changed
- XRPD after pressing [3]: Crystal form I
- change of crystal form after pressing [3]: The crystal form is not changed,
- XRPD after wet grinding (simulated wet grinding; Ethanol): Crystal form I
- change of crystal form after wet grinding (simulated wet grinding; Ethanol): The crystal form is not changed, and
- change of crystallinity after wet grinding (simulated wet grinding; Ethanol): the crystallinity is slightly reduced
- XRPD after wet grinding (simulated wet grinding; Water): Crystal form I
- change of crystal form after wet grinding (simulated wet grinding; Water): The crystal form is not changed, and
- change of crystallinity after wet grinding (simulated wet grinding; Water): the crystallinity is slightly reduced
- XRPD result ([4]; Acetone (a.w. = 0), 10 days): Crystal form I
- XRPD result ([4]; Acetone (a.w. = 0), 22 days): Crystal form I
- XRPD result ([4]; Acetone/water 36:64 (a.w. = 0.9), 12 days): Crystal form I
- XRPD result ([4]; Acetone/water 60.4:39.6 (a.w. = 0.8), 12 days): Crystal form I
- XRPD result ([4]; Acetone/water 75.8:24.2 (a.w. = 0.7), 12 days): Crystal form I
- XRPD result ([4]; Acetone/water 91:9 (a.w. = 0.6), 10 days): Crystal form I
- XRPD result ([4]; Acetone/water 91:9 (a.w. = 0.6), 22 days): Crystal form I
- XRPD result ([4]; Acetone/water 94:6 (a.w. = 0.5), 10 days): Crystal form I
- XRPD result ([4]; Acetone/water 94:6 (a.w. = 0.5), 22 days): Crystal form I
- XRPD result ([4]; Acetone/water 97:3 (a.w. = 0.3), 10 days): Crystal form I
- XRPD result ([4]; Acetone/water 97:3 (a.w. = 0.3), 22 days): Crystal form I
- XRPD result ([4]; Acetone/water 99:1 (a.w. = 0.1), 10 days): Crystal form I
- XRPD result ([4]; Acetone/water 99:1 (a.w. = 0.1), 22 days): Crystal form I
- XRPD result ([4]; Water (a.w. = 1), 10 days): Crystal form I
- XRPD result ([4]; Water (a.w. = 1), 22 days): Crystal form I
- IC50 (JAK3): 275 nM
- hygroscopicity (hygroscopicity by DVS): no obvious hygroscopicity
- Hygroscopicity, weight gain (DVS) (hygroscopicity by DVS; under 95% RH): Weight gain of 0.9%
- IC50 (TYK2; 1 mM ATP): 1 nM
- IC50 (JAK1; 1 mM ATP): 10 nM
SMILES: Cc1cnc(Nc2cnn(C3CC(C)(C)OC(C)(C)C3)c2)nc1-c1ccc(C(=O)NCC#N)cc1 [crystal form I]
- crystal form stability over water activity range ([4]; up to 22 days, water activity range 1% to 100%): not transformed into a hydrate or other crystal forms

SMILES: N#CC[C@H](C1CCCC1)n1cc(-c2ncnc3[nH]ccc23)cn1 [Ruxolitinib]
- tolerability [5]: well tolerated

- inhibitory effect on JAK2 (JAK2; preclinical study): strong inhibitory effect
- inhibitory effect on TYK2 (TYK2; preclinical study): strong inhibitory effect
- inhibitory effect on JAK1 (JAK1; preclinical study): strong inhibitory effect
SMILES: Cc1cnc(Nc2cnn(C3CC(C)(C)OC(C)(C)C3)c2)nc1-c1ccc(C(=O)NCC#N)cc1 [LNK01004]
- inhibition of proliferation of keratinocytes (keratinocytes): can also inhibit the proliferation of keratinocytes
- inhibition of p-STAT signaling pathway induced by multiple cytokines (p-STAT signaling pathway): can inhibit p-STAT signaling pathway
